These results are taken from PMC11564732, “Synthesis and preliminary cytotoxicity evaluation of water soluble pentacyclic triterpenoid phosphonates” (Scientific Reports, 2024).

Converted amounts (≈) assume the structure as drawn. Bounds are passed on as bounds.

What is called solubility is the dissolved amount per volume that the medium holds. Read a low solubility as little dissolved substance. Usually Aqueous solubility stands for the dissolved amount per volume that the medium holds.

Data set [1] deals with human-derived osteosarcoma cell line MG-63. In words: Cytotoxicity evaluation, relative cell metabolic activity (CellTiter-Blue), MG-63. The conditions noted are these: 24 h, mean ± SD; for viability at 10 µM / viability at 25 µM / viability at 50 µM: Homo sapiens, read-out: Relative metabolic activity of MG-63 cells; for viability at 10 µM: MG-63, 10 µM; for viability at 25 µM: MG-63, 25 µM; for viability at 50 µM: MG-63, 50 µM. Format: cell-based. Here is the method: (§1) All target compounds were studied to determine their cytotoxic activity at various concentrations of each compound (10–50 µM) against human-derived osteosarcoma cell line MG-63 (ATCC, CRL-1427) and mouse-derived preosteoblast cell line MC3T3-E1 (ATCC, CRL-2593) (Table 4 and Figures S1-S4 in the Supporting Information). For the comparison, naturally occurring betulinic, oleanolic (1b) and ursolic (1c) acids as well as their 3-oxo analogs 2a-c and doxorubicin, were also subjected to the cytotoxicity tests.
(§2) Cytotoxicity of betulinic acid, ursolic acid and oleanolic acid derivatives was evaluated using human-derived osteosarcoma cell line MG63 (ATCC, CRL-1427) and mouse-derived preosteoblast cell line MC3T3-E1 (ATCC CRL-2593). Before conducting the experiments, both cell lines were continuously cultured according to the ATCC product sheet instructions. Briefly, both cell lines were expanded in α-MEM medium supplemented with 10% FBS and 1% pen-strep and maintained at 37 °C in a humidified atmosphere with 5% CO2.
(§3) Each cell line was plated at a concentration of 1 × 10^4 cells/well in 96-well plate. The plates were incubated for 24 h to allow cell attachment and growth. Bioactive substances were solubilized in methanol prior further dilution in cell culture media. Following the cell incubation period, the culture media was removed and the dilutions of active substance (10, 25 and 50 µM) in cell culture media were added. The culture medium only and its dilutions with methanol solution respective to the bioactive substance concentrations were used as the controls. […] Cells were treated with bioactive substance solutions for 24 h. After 24 h incubation, relative cell metabolic activity was assessed using CellTiter-Blue® (CTB) analysis (Promega, JAV). […] was measured at 590 nm using microplate reader (Infinite® 200 PRO, Tecan, USA). The relative cell metabolic activity was calculated for each bioactive substance concentration as well as for the controls. […] Statistically significant differences between sample groups are assessed using a one-way ANOVA test and then corrected using the Šídák multiple comparison test. Statistically significant differences were considered to be those with a P-values less than 0.05 (p < 0.05).
(§4) Cytotoxicity of betulinic acid, ursolic acid and oleanolic acid derivatives was evaluated using human-derived osteosarcoma cell line MG63 (ATCC, CRL-1427) and mouse-derived preosteoblast cell line MC3T3-E1 (ATCC CRL-2593). Before conducting the experiments, both cell lines were continuously cultured according to the ATCC product sheet instructions. Briefly, both cell lines were expanded in α-MEM medium supplemented with 10 % FBS and 1 % pen-strep and maintained at 37 °C in a humidified atmosphere with 5 % CO2.
(§5) […]
On the technique in general: The colour change of resazurin is a common sign of viable cells or microbes.

The test system of data set [2] is mouse-derived preosteoblast cell line MC3T3-E1. Put plainly: Cytotoxicity evaluation, relative cell metabolic activity (CellTiter-Blue), MC3T3-E1. Type of data set: cell-based. The settings on record: 24 h, mean ± SD; for viability at 10 µM / viability at 25 µM / viability at 50 µM: Mus musculus, read-out: Relative metabolic activity of MC3T3-E1 cells; for viability at 10 µM: MC3T3-E1, 10 µM; for viability at 25 µM: MC3T3-E1, 25 µM; for viability at 50 µM: MC3T3-E1, 50 µM. Here is the method: as §1, §2, §3, §4, §5

Data set [3] is described as follows: Water solubility determination by quantitative 1H-NMR in D2O. Type of data set: physicochemical. The conditions noted are these: D2O adjusted with NaOD, aqueous buffer, thermodynamic from solid; qNMR in D2O, pH 8.0-8.5 (NaOD), room temperature, potassium hydrogen phthalate external standard. An excerpt: The obtained PCT-derived sodium phosphonates were subjected to water solubility tests (Table 3). For this purpose, we used a quantitative ^1H-NMR approach in D2O, using potassium hydrogen phthalate as an external standard (for experimental details see Supporting Information). The presence of the basic forms of phosphonates[80] was ensured by the careful addition of NaOD, maintaining pH 8.0–8.5 during the quantification, which is 2–3 units higher than the pKa of phosphonic acid disalt. […] This is by at least two to three orders of magnitude higher than the reported solubilities of the parent natural triterpenic acids. […] Indeed, phosphonic acids are more acidic and easier ionizable than carboxylic acids. This ionic character helps to increase the aqueous solubility as exemplified by here described compounds.
Water solubility determination
To suspension of PCT phosphonate sample (10 mg) in D2O (500 µL) 0.8% solution of NaOD in D2O was added dropwise until pH = 8-8.5 (<100 µL). Obtained suspension was sonified in ultrasonic bath for 10 min. Undissolved particles were separated by centrifugation. Clear D2O solution was carefully transferred to NMR tube equipped with external standard vial.
Formula (1) was used to determine the solubility of PCT sample in the D2O.
[…]
SolPCT - solubility of PCT sample in D2O at room temperature (mg/mL)
IPCT - integral value of PCT signal of choice
Ist - integral value of external standard signal of choice
NPCT - number of integrated protons of PCT
Nst - number of integrated protons of external standard
V - volume of used D2O (mL) mst - mass of external standard (mg)
Mbet - molecular weight of PCT (g•mol−1)
Mst - molecular weight of external standard - potassium hydrogen phthalate (204.22 […]
Wst - assay of the external standard (99.5 %)

For data set [4] the following is noted: cited from earlier work.

In the case of `C=C(C)[C@@H]1CC[C@]2(C(=O)O)CC[C@]3(C)[C@H](CC[C@@H]4[C@@]5(C)CCC(=O)C(C)(C)[C@@H]5CC[C@]43C)[C@@H]12` [Betulonic acid (2a), Betulonic acid], in data set [1], the viability at 10 µM was 114 ± 2%, the viability at 25 µM worked out at 96 ± 4% and the viability at 50 µM worked out at 88 ± 8%. Also, in data set [2], the viability at 10 µM was 139 ± 6%, the viability at 25 µM was determined as 170 ± 5% and the viability at 50 µM amounted to 122 ± 1%.
On to `CC1CCC2(C(=O)OCP(=O)([O-])[O-])CCC3(C)C(=CCC4C5(C)CCC(=O)C(C)(C)C5CCC43C)C2C1C.[Na+].[Na+]` (centres unmarked) [7c], for which, in data set [1], the viability at 10 µM worked out at 96 ± 4%, the viability at 25 µM is 98 ± 4% and the viability at 50 µM was determined as 112 ± 3%. Besides, in data set [3], the solubility at 10 min was found to be 26000 µg/mL. In data set [2], the viability at 10 µM is 91 ± 6%, the viability at 25 µM turned out to be 90 ± 3% and the viability at 50 µM worked out at 94 ± 5%.
As for `C=C(C)[C@@H]1CC[C@]2(COCP(=O)([O-])[O-])CC[C@]3(C)[C@H](CC[C@@H]4[C@@]5(C)CC[C@H](OCP(=O)([O-])[O-])C(C)(C)[C@@H]5CC[C@]43C)[C@@H]12.[Na+].[Na+].[Na+].[Na+]` [compound 12, Sodium (lup-20(29)-en-(3 S)-3,28-diylbis(oxymethylene))bis(phosphonate)], in data set [1], the viability at 10 µM is 97 ± 8%, the viability at 25 µM worked out at 89 ± 5% and the viability at 50 µM came out at 94 ± 4%. Moreover, the solubility at 10 min in data set [3] amounted to 3000 µg/mL. For the same molecule, in data set [2], the viability at 10 µM was determined as 90 ± 7%, the viability at 25 µM stood at 93 ± 6% and the viability at 50 µM is 92 ± 4%.
Take `C=C(C)[C@@H]1CC[C@]2(C(=O)O)CC[C@]3(C)[C@H](CC[C@@H]4[C@@]5(C)CC[C@H](O)C(C)(C)[C@@H]5CC[C@]43C)[C@@H]12` [Betulinic acid]: in data set [4] (distilled water), the “Solubility in distilled water” value is 0.021 µg/mL (≈ 0.046 µM). In data set [4], the “Aqueous solubility at neutral pH” value is < 0.1 µg/mL and the “Aqueous solubility at pH 11.8” value was 42.1 µg/mL. Also, the “Solubility in sodium phosphate solution” value in data set [4] (pH 11.4, sodium phosphate solution) is 40.1 µg/mL (≈ 87.8 µM). For the same molecule, in data set [1], the viability at 10 µM is 74 ± 16%, the viability at 25 µM was determined as 91 ± 14% and the viability at 50 µM worked out at 112 ± 8%. Further, in data set [2], the viability at 10 µM turned out to be 76 ± 7%, the viability at 25 µM was found to be 56 ± 4% and the viability at 50 µM amounted to 97 ± 7%.
For the molecule `COc1cccc2c1C(=O)c1c(O)c3c(c(O)c1C2=O)C[C@@](O)(C(=O)CO)C[C@@H]3O[C@H]1C[C@H](N)[C@H](O)[C@H](C)O1` [Doxorubicin], in data set [1], the viability at 10 µM came out at 41 ± 2%, the viability at 25 µM came out at 19 ± 1% and the viability at 50 µM turned out to be 16 ± 2%. In data set [2], the viability at 10 µM amounted to 72 ± 7%, the viability at 25 µM came to 60 ± 3% and the viability at 50 µM worked out at 53 ± 3%.
For the molecule `C[C@H]1[C@H](C)CC[C@]2(C(=O)O)CC[C@]3(C)C(=CC[C@@H]4[C@@]5(C)CCC(=O)C(C)(C)[C@@H]5CC[C@]43C)[C@H]12` [Ursonic acid (2c), Ursonic acid], in data set [1], the viability at 10 µM came to 76 ± 8%, the viability at 25 µM turned out to be 67 ± 4% and the viability at 50 µM stood at 67 ± 4%. In addition, in data set [2], the viability at 10 µM was 74 ± 2%, the viability at 25 µM was determined as 107 ± 7% and the viability at 50 µM came to 72 ± 9%.
In the case of “Sodium (3-oxo-(17R)-17-28-norlup-20(29)-en)-2-oxoethyl-phosphonate [7a]”, the “Relative metabolic activity of MG-63 cells” value is listed as 1.10 ± 0.04 in data set [1] (10 µM), 1.30 ± 0.06 in data set [1] (25 µM) and 1.09 ± 0.04 in data set [1] (50 µM). Also, the “Relative metabolic activity of MC3T3-E1 cells” value is 1.41 ± 0.01 in data set [2] (10 µM), 1.27 ± 0.05 in data set [2] (25 µM) and 1.13 ± 0.03 in data set [2] (50 µM).
In the case of `CC1(C)CC[C@]2(C(=O)O)CC[C@]3(C)C(=CC[C@@H]4[C@@]5(C)CC[C@H](O)C(C)(C)[C@@H]5CC[C@]43C)[C@@H]2C1` [Oleanolic acid (1b), Oleanolic acid], in data set [4], the “Aqueous solubility at neutral pH” value is on record as < 0.1 µg/mL and the “Aqueous solubility at pH 11.8” value is 99.5 µg/mL. In data set [1], the viability at 10 µM stood at 77 ± 14%, the viability at 25 µM is 158 ± 13% and the viability at 50 µM worked out at 129 ± 11%. In data set [2], the viability at 10 µM amounted to 104 ± 7%, the viability at 25 µM was 97 ± 8% and the viability at 50 µM is 96 ± 5%.
Turning to `CC1(C)CC[C@]2(C(=O)O)CC[C@]3(C)C(=CC[C@@H]4[C@@]5(C)CCC(=O)C(C)(C)[C@@H]5CC[C@]43C)[C@@H]2C1` [Oleanonic acid (2b), Oleanonic acid], in data set [1], the viability at 10 µM stood at 151 ± 8%, the viability at 25 µM worked out at 160 ± 3% and the viability at 50 µM is 103 ± 18%. Besides, in data set [2], the viability at 10 µM is 110 ± 1%, the viability at 25 µM was 99 ± 5% and the viability at 50 µM was determined as 49 ± 12%.
Turning to `CC1(C)CCC2(C(=O)OCP(=O)([O-])[O-])CCC3(C)C(=CCC4C5(C)CCC(=O)C(C)(C)C5CCC43C)C2C1.[Na+].[Na+]` (centres unmarked) [7b], in data set [1], the viability at 10 µM turned out to be 113 ± 8%, the viability at 25 µM amounted to 132 ± 5% and the viability at 50 µM is 119 ± 5%. Also, the solubility at 10 min in data set [3] came out at 8000 µg/mL. Further, in data set [2], the viability at 10 µM is 131 ± 8%, the viability at 25 µM came to 150 ± 4% and the viability at 50 µM was 104 ± 5%.
In the case of `CC1(C)CCC2(C(=O)OCP(=O)([O-])[O-])CCC3(C)C(=CCC4C5(C)CCC(O)C(C)(C)C5CCC43C)C2C1.[Na+].[Na+]` (centres unmarked) [8b], the solubility at 10 min in data set [3] was determined as 7000 µg/mL.
For the molecule `C[C@H]1[C@H](C)CC[C@]2(C(=O)O)CC[C@]3(C)C(=CC[C@@H]4[C@@]5(C)CC[C@H](O)C(C)(C)[C@@H]5CC[C@]43C)[C@H]12` [Ursolic acid (1c), Ursolic acid], the “Aqueous solubility (in words)” value in data set [4] (compared with oleanolic and betulinic acids) was “similarly low aqueous solubility”. For the same molecule, in data set [1], the viability at 10 µM worked out at 66 ± 3%, the viability at 25 µM was found to be 64 ± 3% and the viability at 50 µM amounted to 28 ± 4%. Moreover, in data set [2], the viability at 10 µM was 106 ± 5%, the viability at 25 µM came out at 83 ± 5% and the viability at 50 µM was 99 ± 8%.
